Like-named read-outs stand apart in the source and are kept apart here.
How the values were obtained:
[1] = test system: Ovarian Cell Line OVCAR-8; assay: cells; assay type: cell-based; conditions: Homo sapiens, OVCAR-8, read-out: inhibition of proliferation
[2] = test system: Leukemia Cell Line HL-60(TB); assay type: cell-based; conditions: Homo sapiens
[3] = test system: Ovarian Cell Line OVCAR-3; assay: cells; conditions: Homo sapiens, OVCAR-3, read-out: inhibition of proliferation
[4] = test system: Ovarian Cell Line NCI/ADR-RES; assay: cells; assay type: cell-based; conditions: Homo sapiens, read-out: inhibition of proliferation
[5] = test system: Breast Cancer Cell Line BT-549; assay: cells; assay type: cell-based; conditions: Homo sapiens, BT-549, read-out: inhibition of proliferation
[6] = test system: Ovarian Cell Line IGROV1; assay type: cell-based; conditions: Homo sapiens
[7] = test system: Leukemia Cell Line CCRF-CEM; assay: cells; assay type: cell-based; conditions: Homo sapiens, read-out: inhibition of proliferation
[8] = test system: Leukemia Cell Line MOLT-4; assay type: cell-based; conditions: Homo sapiens
[9] = test system: Melanoma Cell Line UACC-62; assay: cells; assay type: cell-based; conditions: Homo sapiens
[10] = test system: Leukemia Cell Line RPMI-8226; assay type: cell-based; conditions: Homo sapiens
[11] = test system: Breast Cancer Cell Line MDA-MB-468; assay: cells; conditions: Homo sapiens, MDA-MB-468, read-out: inhibition of proliferation
[12] = test system: Breast Cancer Cell Line HS 578T; assay type: cell-based; conditions: Homo sapiens, read-out: inhibition of proliferation
[13] = biological target: T1, HDAC6 (Homo sapiens, UniProt Q9UBN7); assay: HDAC Fluorescent Activity Assay; assay type: biochemical; conditions: for inhibition at 1 µM: symbols ** / *, read-out: HDAC6 Inhibition Activity (% Inhibition class)
T1 sequence (Q9UBN7 1-1215): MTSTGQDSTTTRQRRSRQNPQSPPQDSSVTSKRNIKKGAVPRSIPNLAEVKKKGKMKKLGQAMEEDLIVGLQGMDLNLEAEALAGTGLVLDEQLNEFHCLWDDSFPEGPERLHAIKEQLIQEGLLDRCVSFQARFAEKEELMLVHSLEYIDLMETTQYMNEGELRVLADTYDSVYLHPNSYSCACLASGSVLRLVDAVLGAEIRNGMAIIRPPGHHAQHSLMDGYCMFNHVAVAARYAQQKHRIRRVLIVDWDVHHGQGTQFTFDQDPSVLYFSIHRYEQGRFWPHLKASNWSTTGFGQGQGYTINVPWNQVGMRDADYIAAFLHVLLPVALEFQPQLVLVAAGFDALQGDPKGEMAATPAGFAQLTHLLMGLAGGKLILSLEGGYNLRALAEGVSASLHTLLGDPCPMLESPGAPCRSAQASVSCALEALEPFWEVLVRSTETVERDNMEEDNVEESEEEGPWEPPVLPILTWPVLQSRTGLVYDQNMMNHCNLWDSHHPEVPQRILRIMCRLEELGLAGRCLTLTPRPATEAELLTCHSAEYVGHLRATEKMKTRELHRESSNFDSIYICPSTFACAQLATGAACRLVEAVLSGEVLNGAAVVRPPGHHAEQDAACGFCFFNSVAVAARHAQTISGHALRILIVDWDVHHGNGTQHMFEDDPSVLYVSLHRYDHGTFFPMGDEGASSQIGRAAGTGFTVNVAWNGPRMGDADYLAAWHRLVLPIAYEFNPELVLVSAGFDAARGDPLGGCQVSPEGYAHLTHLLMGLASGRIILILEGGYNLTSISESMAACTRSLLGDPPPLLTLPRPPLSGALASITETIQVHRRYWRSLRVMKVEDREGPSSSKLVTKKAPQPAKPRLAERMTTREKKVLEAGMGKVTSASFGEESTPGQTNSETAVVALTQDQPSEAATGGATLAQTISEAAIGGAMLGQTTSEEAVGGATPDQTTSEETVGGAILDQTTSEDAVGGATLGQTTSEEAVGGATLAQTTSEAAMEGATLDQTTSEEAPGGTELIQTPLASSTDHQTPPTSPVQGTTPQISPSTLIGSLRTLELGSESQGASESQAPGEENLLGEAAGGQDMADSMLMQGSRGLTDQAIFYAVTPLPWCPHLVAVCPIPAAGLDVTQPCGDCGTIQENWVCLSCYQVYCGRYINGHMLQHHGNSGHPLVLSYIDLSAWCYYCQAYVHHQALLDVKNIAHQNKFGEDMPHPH
Experimental: This protocol is to determine the IC50s or percentage of inhibition values of the test compound against HDACs.
The HDAC Fluorescent Activity Assay is based on the unique Fluorogenic Substrate and Developer combination. […] First, the Fluorogenic Substrate, which comprises an acetylated lysine side chain, is incubated with a purified HDAC enzyme. Deacetylation of the substrate sensitizes the substrate so that, in the second step, treatment with the Developer produces a fluorophore.
Testing compounds were dissolved in 100% DMSO to specific concentration. […]
1. Deliver 2× enzyme in wells of reaction plate except No Enzyme control wells. Add buffer in No En wells.
2. Deliver compounds in 100% DMSO into the enzyme mixture by Acoustic technology (Echo550; nanoliter range). Spin down and pre-incubation.
3. Deliver 2× Substrate Mixture (Fluorogenic HDAC Substrate and co-factor if applicable) in all reaction wells to initiate the reaction. Spin and shake.
4. Incubate for 1-2 hr at 30° C. with seal.
5. Add Developer with Trichostatin A (or TMP269) to stop the reaction and to generate fluorescent color.
6. Fluorescence was read (excitatory, 360; emission, 460) using the EnVision Multilabel
7. Take endpoint reading for analysis after the development reaches plateau.
The percentages of enzyme activity (relative to DMSO controls) and IC50 values were calculated using the GraphPad Prism 4 program based on a sigmoidal dose-response equation.

[14] = biological target: PI3Kβ (Homo sapiens, UniProt P42338); assay: PI3Kβ kinase assay (HTRF); assay type: biochemical
Experimental: (§1) The PIP3 product is detected by displacement of biotin-PIP3 from an energy transfer complex consisting of Europium labeled anti-GST monoclonal antibody, a GST-tagged pleckstrin homology (PH) domain, biotinylated PIP3 and Streptavidin-Allophycocyanin (APC). […] The PIP3 product formed by PI 3-Kinase(h) activity displaces biotin-PIP3 from the complex resulting in a loss of energy transfer, and thus, a decrease in signal.
(§2) First, the kinase reaction with PIP2 substrate is carried out in the presence of ATP, and the reaction is quenched with stop Solution, and then, finally detect by adding Detection Mixture followed by incubation.
(§3) HEPES 50 mM (pH7.0), NaN3 0.02%, BSA 0.01%, Orthovanadate 0.1 mM, 1% DMSO.
(§4) Detection buffer: HEPES 10 mM (pH7.0), BSA 0.02%, KF 0.16 M, EDTA 4 mM.
(§5) 10 μM PIP2 substrate (PI(4,5)P2)
(§6) 10 μM ATP under standard conditions
(§7) 1. Prepare substrate in freshly prepared Reaction Buffer.
(§8) 2. Deliver kinase into the substrate solution and gently mix.
(§9) 3. Deliver compounds in 100% DMSO into the kinase reaction mixture by Acoustic technology (Echo550; nanoliter range), incubate for 10 min at room temperature.
(§10) 4. Deliver ATP into the reaction mixture to initiate the reaction.
(§11) 5. Incubate for 30 min at 30° C.
(§12) 6. Quench the reaction with Stop Solution.
(§13) 7. Add Detection Mixture, and incubate for overnight.
(§14) The emission ratio is converted into μM PIP3 production based on PIP3 standard curves.
(§15) The nonlinear regression to obtain the standard curve and IC50 values are performed using Graphpad Prism software.

[15] = biological target: PI3Kγ (Homo sapiens, UniProt P48736); assay: PI3Kγ kinase assay (HTRF); assay type: biochemical
Experimental: as §1, §2, §3, §4, §5, §6, §7, §8, §9, §10, §11, §12, §13, §14, §15

[16] = biological target: PI3Kδ (Homo sapiens, UniProt O00329); assay: PI3Kδ kinase assay (HTRF); assay type: biochemical; conditions: for inhibition at 1 µM: symbols ** / *, read-out: PI3Kδ Inhibition Activity (% Inhibition class)
Experimental: as §1, §2, §3, §4, §5, §6, §7, §8, §9, §10, §11, §12, §13, §14, §15

[17] = biological target: PI3Kα (Homo sapiens, UniProt P42336); assay: PI3Kα kinase assay (HTRF); assay type: biochemical
Experimental: as §1, §2, §3, §4, §5, §6, §7, §8, §9, §10, §11, §12, §13, §14, §15

[18] = test system: Leukemia Cell Line SR; assay: cells; assay type: cell-based; conditions: Homo sapiens, read-out: inhibition of proliferation
[19] = HL-60, read-out: inhibition of proliferation
[20] = IGROV-1, read-out: inhibition of proliferation
[21] = MOLT-4, read-out: inhibition of proliferation
[22] = UACC-62, read-out: inhibition of proliferation
[23] = RPMI-8226, read-out: inhibition of proliferation
[24] = HS 578T, single dose, 10 uM compound concentration

Chain of PI3Kδ (O00329 whole entry): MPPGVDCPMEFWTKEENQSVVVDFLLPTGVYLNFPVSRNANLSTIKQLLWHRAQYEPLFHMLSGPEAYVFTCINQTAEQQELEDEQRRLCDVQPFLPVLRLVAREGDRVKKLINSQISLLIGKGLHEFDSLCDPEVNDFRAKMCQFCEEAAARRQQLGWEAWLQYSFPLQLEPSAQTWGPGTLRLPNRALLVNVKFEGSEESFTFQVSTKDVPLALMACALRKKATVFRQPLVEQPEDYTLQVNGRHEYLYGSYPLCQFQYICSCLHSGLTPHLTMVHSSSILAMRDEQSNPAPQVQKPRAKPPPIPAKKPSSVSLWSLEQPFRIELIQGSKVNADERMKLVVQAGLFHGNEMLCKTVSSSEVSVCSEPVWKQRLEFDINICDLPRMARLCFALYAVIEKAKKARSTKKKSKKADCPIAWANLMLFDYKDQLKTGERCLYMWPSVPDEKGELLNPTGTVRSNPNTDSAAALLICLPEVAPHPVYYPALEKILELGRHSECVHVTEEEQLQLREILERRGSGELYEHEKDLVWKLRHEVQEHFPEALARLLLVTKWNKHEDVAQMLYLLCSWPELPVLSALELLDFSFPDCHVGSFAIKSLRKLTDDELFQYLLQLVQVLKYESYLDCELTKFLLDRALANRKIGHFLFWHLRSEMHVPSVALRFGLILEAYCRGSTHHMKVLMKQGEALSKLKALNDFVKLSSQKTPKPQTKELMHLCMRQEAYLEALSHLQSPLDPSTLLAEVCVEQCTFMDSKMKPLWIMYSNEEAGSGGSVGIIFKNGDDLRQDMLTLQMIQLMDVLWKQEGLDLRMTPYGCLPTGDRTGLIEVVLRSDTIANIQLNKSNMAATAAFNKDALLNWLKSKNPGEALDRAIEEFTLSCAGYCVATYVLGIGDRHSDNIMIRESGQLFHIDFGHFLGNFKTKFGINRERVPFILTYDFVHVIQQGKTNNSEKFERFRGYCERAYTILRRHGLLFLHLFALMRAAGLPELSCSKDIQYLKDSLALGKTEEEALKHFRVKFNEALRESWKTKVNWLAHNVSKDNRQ
Chain of PI3Kδ (P27986 whole entry partner): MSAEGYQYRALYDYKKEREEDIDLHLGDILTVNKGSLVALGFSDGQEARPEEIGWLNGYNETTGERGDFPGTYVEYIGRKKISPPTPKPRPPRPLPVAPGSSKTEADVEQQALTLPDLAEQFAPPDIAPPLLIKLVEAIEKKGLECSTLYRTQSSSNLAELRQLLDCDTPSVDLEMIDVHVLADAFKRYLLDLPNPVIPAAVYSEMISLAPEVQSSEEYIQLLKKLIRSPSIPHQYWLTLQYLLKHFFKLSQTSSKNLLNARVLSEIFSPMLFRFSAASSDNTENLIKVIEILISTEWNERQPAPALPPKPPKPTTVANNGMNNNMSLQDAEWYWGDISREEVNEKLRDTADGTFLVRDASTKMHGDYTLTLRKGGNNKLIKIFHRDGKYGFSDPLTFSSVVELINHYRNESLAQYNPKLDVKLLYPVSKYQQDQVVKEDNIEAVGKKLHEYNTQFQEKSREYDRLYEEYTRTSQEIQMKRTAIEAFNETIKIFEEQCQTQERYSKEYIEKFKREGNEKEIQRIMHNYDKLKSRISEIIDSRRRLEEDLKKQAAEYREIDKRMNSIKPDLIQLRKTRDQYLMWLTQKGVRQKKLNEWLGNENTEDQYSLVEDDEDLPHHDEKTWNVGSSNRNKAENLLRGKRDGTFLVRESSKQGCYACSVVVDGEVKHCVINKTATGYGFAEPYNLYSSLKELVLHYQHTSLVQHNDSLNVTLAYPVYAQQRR
Chain of PI3Kα (P42336 whole entry): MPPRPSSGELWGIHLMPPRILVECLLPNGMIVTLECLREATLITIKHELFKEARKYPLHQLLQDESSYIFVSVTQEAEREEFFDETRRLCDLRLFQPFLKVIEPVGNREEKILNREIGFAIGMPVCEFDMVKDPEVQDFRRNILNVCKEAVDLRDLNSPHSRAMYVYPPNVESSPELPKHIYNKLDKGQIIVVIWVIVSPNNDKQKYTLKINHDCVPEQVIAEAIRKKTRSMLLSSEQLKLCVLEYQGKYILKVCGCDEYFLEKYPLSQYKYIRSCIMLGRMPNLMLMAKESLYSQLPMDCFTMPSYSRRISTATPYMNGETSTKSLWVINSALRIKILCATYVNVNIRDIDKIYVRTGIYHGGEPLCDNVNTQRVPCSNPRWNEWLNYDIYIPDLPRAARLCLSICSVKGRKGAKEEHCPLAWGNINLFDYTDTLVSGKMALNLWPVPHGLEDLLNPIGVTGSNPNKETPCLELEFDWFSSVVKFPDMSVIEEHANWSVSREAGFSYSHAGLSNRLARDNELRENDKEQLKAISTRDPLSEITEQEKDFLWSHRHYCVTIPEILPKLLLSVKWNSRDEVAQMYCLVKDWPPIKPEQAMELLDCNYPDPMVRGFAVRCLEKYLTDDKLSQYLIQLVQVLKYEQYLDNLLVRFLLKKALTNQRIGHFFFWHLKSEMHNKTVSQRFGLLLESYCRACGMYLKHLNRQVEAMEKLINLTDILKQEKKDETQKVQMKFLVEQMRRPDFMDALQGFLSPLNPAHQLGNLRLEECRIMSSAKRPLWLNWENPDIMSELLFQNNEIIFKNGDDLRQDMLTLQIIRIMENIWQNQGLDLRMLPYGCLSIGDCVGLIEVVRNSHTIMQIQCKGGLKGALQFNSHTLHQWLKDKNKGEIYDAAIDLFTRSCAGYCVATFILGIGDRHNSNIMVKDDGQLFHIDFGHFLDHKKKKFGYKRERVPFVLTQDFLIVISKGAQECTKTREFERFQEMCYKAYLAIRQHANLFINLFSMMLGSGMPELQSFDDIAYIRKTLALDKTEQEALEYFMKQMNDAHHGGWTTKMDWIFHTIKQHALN
Chain of PI3Kα (P27986 whole entry partner): as the sequence (P27986 whole entry partner) above
Chain of PI3Kβ (P42338 whole entry): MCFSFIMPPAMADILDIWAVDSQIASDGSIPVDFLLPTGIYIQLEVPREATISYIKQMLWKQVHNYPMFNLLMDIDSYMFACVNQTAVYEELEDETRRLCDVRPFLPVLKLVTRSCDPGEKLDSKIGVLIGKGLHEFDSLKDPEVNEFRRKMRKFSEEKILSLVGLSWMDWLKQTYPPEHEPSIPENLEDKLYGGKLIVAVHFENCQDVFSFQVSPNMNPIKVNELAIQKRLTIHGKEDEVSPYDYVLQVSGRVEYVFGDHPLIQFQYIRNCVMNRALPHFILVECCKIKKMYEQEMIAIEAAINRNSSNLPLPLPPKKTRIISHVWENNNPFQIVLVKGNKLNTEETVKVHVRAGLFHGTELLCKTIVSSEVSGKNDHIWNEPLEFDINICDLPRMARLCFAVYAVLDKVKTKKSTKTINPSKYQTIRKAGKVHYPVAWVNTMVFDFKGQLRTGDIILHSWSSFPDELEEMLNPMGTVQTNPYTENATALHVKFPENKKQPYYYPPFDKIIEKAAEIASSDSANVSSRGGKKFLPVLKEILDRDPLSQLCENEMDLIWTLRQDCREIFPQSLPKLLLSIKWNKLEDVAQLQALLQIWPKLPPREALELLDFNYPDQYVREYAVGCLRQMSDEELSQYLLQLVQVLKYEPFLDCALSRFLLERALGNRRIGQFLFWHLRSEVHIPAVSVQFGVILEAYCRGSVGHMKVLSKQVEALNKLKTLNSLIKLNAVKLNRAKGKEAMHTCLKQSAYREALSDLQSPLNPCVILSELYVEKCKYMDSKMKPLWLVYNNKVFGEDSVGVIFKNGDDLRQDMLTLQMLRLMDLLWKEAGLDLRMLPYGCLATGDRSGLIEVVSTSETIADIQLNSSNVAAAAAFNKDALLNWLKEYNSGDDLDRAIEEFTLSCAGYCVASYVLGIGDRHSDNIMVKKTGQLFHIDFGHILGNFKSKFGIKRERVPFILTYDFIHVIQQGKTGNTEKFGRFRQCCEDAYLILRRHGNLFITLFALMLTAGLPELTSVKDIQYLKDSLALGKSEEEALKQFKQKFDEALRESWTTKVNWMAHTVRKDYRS
Chain of PI3Kβ (P27986 whole entry partner): as the sequence (P27986 whole entry partner) above
Chain of PI3Kγ (P48736 whole entry): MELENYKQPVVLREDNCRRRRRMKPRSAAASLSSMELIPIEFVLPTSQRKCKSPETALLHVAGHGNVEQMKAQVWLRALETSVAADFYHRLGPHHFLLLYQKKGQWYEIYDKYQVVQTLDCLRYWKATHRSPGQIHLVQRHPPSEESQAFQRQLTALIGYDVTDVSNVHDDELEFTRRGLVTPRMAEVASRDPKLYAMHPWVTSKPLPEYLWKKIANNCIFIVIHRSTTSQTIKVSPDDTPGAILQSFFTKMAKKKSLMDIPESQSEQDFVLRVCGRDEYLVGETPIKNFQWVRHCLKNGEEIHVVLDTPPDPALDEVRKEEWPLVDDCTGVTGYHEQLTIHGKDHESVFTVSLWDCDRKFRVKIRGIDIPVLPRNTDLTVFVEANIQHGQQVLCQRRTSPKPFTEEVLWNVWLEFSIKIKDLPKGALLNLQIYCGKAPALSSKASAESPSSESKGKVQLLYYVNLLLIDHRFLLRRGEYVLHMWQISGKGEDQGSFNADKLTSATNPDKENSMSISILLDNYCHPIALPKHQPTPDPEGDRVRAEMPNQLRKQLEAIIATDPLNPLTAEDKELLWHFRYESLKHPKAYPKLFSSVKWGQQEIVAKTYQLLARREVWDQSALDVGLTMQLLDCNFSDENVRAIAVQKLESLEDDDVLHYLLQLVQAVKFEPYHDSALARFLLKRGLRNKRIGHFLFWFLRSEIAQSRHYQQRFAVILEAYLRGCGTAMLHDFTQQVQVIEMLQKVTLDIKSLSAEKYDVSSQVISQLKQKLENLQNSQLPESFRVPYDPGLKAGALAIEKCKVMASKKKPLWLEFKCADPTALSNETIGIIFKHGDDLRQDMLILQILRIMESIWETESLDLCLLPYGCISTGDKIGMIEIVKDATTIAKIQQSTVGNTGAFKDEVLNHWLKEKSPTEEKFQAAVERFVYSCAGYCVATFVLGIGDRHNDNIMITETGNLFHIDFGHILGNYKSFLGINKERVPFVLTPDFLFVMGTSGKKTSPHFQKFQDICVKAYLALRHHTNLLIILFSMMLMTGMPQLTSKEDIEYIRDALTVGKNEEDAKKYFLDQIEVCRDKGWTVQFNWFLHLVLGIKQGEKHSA

Compound | inhibition at 10 µM [1] [%] | inhibition at 10 µM [2, 19] [%] | inhibition at 10 µM [3] [%] | inhibition at 10 µM [5] [%] | inhibition at 10 µM [6, 20] [%] | inhibition at 10 µM [7] [%] | inhibition at 10 µM [8, 21] [%] | inhibition at 10 µM [9, 22] [%] | inhibition at 10 µM [10, 23] [%] | inhibition at 10 µM [11] [%] | inhibition at 10 µM ([12]; Hs-578T) [%] | inhibition at 1 µM [14] [%] | inhibition at 1 µM [15] [%] | inhibition at 1 µM [17] [%] | inhibition at 10 µM [18] [%] | inhibition at 1 µM [13] [%] | inhibition at 1 µM [16] [%] | inhibition at 10 µM [12, 24] [%] | further results
CC[C@H](Nc1nc(N)nc(C)c1C#N)c1nc2cccc(NCc3ccc(C(=O)NO)cc3)c2c(=O)n1-c1ccccc1 [Compound XL, (S)-4-(((2-(1-((2-amino-5-cyano-6-methylpyrimidin-4-yl)amino)propyl)-4-oxo-3-phenyl-3,4-dihydroquinazolin-5-yl)amino)methyl)-N-hydroxybenzamide] | > 50 | > 50 | > 50 | > 50 | > 50 | > 50 | > 50 | > 50 | > 50 | > 50 | > 50 | – | – | – | – | – | – | – | inhibition at 10 µM [4]: 25 to 50%
CC[C@H](Nc1ncnc2[nH]cnc12)c1nc2cccc(CCCCNC(=O)NO)c2c(=O)n1-c1ccccc1 [Compound XXIV] | – | > 50 | – | 25 to 50 | > 50 | 25 to 50 | – | 25 to 50 | – | 25 to 50 | 25 to 50 | < 85 | 91 | < 85 | 25 to 50 | – | – | – | IC50 ([13]; symbols ++ / +, read-out: HDAC6 Inhibition Activity (IC50 class)): > 0.1 µM; IC50 ([16]; symbols ++ / +, read-out: PI3Kδ Inhibition Activity (IC50 class)): < 0.1 µM
CC[C@H](Nc1nc(N)nc(C)c1C#N)c1nc2cccc(N3CCC(CC(=O)NO)CC3)c2c(=O)n1-c1ccccc1 [XLIX, (S)-2-(1-(2-(1-((2-amino-5-cyano-6-methylpyrimidin-4-yl)amino)propyl)-4-oxo-3-phenyl-3,4-dihydroquinazolin-5-yl)piperidin-4-yl)-N-hydroxyacetamide] | – | – | – | – | – | – | – | – | – | 25 to 50 | – | – | – | – | – | < 90 | > 90 | 25 to 50 | inhibition at 10 µM ([2]; HL-60(TB), single dose, 10 uM compound concentration, read-out: inhibition of proliferation): 25 to 50%; inhibition at 10 µM ([6]; IGROV-1, IGROV1, single dose, 10 uM compound concentration, read-out: inhibition of proliferation): 25 to 50%; inhibition at 10 µM ([7]; single dose, 10 uM compound concentration): 25 to 50%; inhibition at 10 µM ([9]; UACC-62, single dose, 10 uM compound concentration, read-out: inhibition of proliferation): 25 to 50%
CC[C@H](Nc1cc(C)nc(N)n1)c1nc2cccc(NCc3ccc(C(=O)NO)cc3)c2c(=O)n1-c1ccccc1 [XLI, (S)-4-(((2-(1-((2-amino-6-methylpyrimidin-4-yl)amino)propyl)-4-oxo-3-phenyl-3,4-dihydroquinazolin-5-yl)amino)methyl)-N-hydroxybenzamide] | > 50 | > 50 | > 50 | > 50 | > 50 | > 50 | > 50 | > 50 | > 50 | > 50 | > 50 | – | – | – | – | – | – | – | –
CC[C@H](Nc1ncnc2[nH]cnc12)c1nc2cccc(CC(=O)c3ccc(C(=O)NO)cc3)c2c(=O)n1-c1ccccc1 [Compound I, (S)-4-(2-(2-(1-((9H-purin-6-yl)amino)propyl)-4-oxo-3-phenyl-3,4-dihydroquinazolin-5-yl)acetyl)-N-hydroxybenzamide] | – | – | – | – | – | – | – | – | – | 25 to 50 | – | < 85 | < 85 | < 85 | – | > 90 | > 90 | 25 to 50 | inhibition at 10 µM ([8]; MOLT-4, single dose, 10 uM compound concentration, read-out: inhibition of proliferation): 25 to 50%; inhibition at 10 µM ([10]; RPMI-8226, single dose, 10 uM compound concentration, read-out: inhibition of proliferation): > 50%; inhibition at 10 µM ([18]; SR, single dose, 10 uM compound concentration): 25 to 50%
CC[C@H](Nc1ncnc2[nH]cnc12)c1nc2cccc(CCCCC(=O)NO)c2c(=O)n1-c1ccccc1 [XII, (S)-5-(2-(1-((9H-purin-6-yl)amino)propyl)-4-oxo-3-phenyl-3,4-dihydroquinazolin-5-yl)-N-hydroxypentanamide] | – | – | – | – | – | 25 to 50 | 25 to 50 | – | > 50 | 25 to 50 | 25 to 50 | – | – | – | > 50 | – | – | – | –
